Source: EP0264914A2, “Process for producing L-phenylalanine” (KYOWA HAKKO KOGYO CO., LTD., priority 1986, dated 1988)
Read-outs that look alike come from different tables or passages of the source.

How the values were obtained:
[1] = tested on: Escherichia coli AB3248 strain carrying pAROG1; assay: Growth on M9 plate medium containing phenylalanine; format: cell-based; conditions: M9 plate medium containing 500 µg/mℓ phenylalanine
Protocol: Then, 50 µℓ of the ligase reaction mixture was added to 0.2 mℓ of a suspension containing competent cells at a concentration of about 10⁹ cells/mℓ and the mixture was left standing on ice for 10 minutes. Then, the mixture was heated at 37°C for 5 minutes and admixed with 2 mℓ of LB medium. Then, the mixture was left standing at 37°C for 90-120 minutes. Then, the cells were centrifugally washed twice with physiological saline solution and spread onto M9 plate medium (medium comprising 2 g of glucose, 1 g of NH₄Cl, 6 g of Na₂HPO₄, 3 g of KH₂PO₄, 0.1 g of MgSO₄·7H₂O, 15 mg of CaCl₂·2H₂O, 4 mg of thiamine hydrochloride and 15 g of agar in 1 ℓ of water, adjusted to pH 7.2), containing […] each of histidine, proline, arginine, isoleucine and valine. Colonies grown on M9 plate medium were spread onto LB plate medium (LB medium containing 1.6% agar, pH 7.0) containing 100 µg/mℓ ampicillin and LB plate medium containing 20 µg/mℓ tetracycline, and transformants grown on the ampicillin-containing medium and failing to grow on the tetracycline-containing medium were selected.
Furthermore, the HindIII-SalI-cleaved DNA fragment had the same restriction enzyme cleavage sites as those of aroG gene, as reported by W.D. Davies, et al. [Nucl. Acids Res., 10, 4045 (1982)] […]

PD = PD (Escherichia coli, UniProt P0A9J8); assay: PD activity with phenylalanine added to the reaction solution; format: biochemical; conditions: 100 mM phenylalanine; for activity at 100000 µM: read-out: PD activity, expressed as percentage of that without addition of phenylalanine
Protocol: (§1) DS, CM and PD activities of Corynebacterium glutamicum ATCC 39019 and transformants containing pEaroG-pheA3 were determined. Determination of DS activity was done according to the method of P.R. Sprinavasan, D.B. Sprinson, et al. [J. Biol. Chem., 234, 716 (1959)] and determination of CM and PD activities was done according to the method of R.G.H. Cotton and F. Gibson [Biochem. Biophys. Acta, 100, 76 (1965)].
(§2) Furthermore, DS, CM and PD activities of the transformants carrying pEaroG-pheA1, pEaroG-pheA2 or pEaroG-pheA3, were determined when 100 mM phenylalanine was added to the reaction solutions. Their activities shown in Table 2 are expressed as percentages of those without addition of phenylalanine.

DS = DS (Escherichia coli, UniProt P0AB91); assay: DS activity with phenylalanine added to the reaction solution; format: biochemical; conditions: 100 mM phenylalanine
Protocol: as §1, §2

CM = CM (Escherichia coli, UniProt P0A9J8); assay: CM activity with phenylalanine added to the reaction solution; format: biochemical; conditions: 100 mM phenylalanine; for activity at 100000 µM: read-out: CM activity, expressed as percentage of that without addition of phenylalanine
Protocol: as §1, §2

[2] = Corynebacterium glutamicum ATCC 39019/pEaroG-pheA1
[3] = Corynebacterium glutamicum ATCC 39019/pEaroG-pheA2
[4] = Corynebacterium glutamicum ATCC 39019/pEaroG-pheA3

Chain of DS (P0AB91 whole entry): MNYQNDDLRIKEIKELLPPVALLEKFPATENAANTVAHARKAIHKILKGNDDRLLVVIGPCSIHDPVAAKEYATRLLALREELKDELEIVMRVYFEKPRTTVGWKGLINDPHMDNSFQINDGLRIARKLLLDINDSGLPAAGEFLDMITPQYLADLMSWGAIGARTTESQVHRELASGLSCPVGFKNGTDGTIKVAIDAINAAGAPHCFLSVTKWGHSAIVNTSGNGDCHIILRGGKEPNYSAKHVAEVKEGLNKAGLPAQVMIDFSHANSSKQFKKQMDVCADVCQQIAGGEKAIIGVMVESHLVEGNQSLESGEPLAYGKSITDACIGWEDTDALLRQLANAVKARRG
Chain of PD (P0A9J8 whole entry): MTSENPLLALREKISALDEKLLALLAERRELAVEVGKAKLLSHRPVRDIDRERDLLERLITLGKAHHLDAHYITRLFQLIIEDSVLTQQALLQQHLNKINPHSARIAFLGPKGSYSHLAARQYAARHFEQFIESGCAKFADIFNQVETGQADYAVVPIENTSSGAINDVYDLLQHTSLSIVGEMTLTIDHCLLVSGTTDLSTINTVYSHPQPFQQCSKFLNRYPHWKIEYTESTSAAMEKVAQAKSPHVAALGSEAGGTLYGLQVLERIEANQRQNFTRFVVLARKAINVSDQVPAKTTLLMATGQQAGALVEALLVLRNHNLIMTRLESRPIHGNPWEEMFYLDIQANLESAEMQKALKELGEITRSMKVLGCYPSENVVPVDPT
Chain of CM (P0A9J8 whole entry): as above

Compound: N[C@@H](Cc1ccccc1)C(=O)O [phenylalanine]
- growth of Escherichia coli AB3248 strain carrying pAROG1 [1]: completely inhibited
- activity at 100000 µM (PD; [2]): 5%
- activity at 100000 µM (PD; [3]): 7%
- PD activity, expressed as percentage of that without addition of phenylalanine (PD; [4]): 81 percentages
- activity at 100000 µM (DS; Corynebacterium glutamicum ATCC 39019/pEaroG-pheA1, read-out: DS activity, expressed as percentage of that without addition of phenylalanine): 12%
- DS activity, expressed as percentage of that without addition of phenylalanine (DS; [3]): 74 percentages
- DS activity, expressed as percentage of that without addition of phenylalanine (DS; [4]): 74 percentages
- activity at 100000 µM (CM; [2]): 61%
- activity at 100000 µM (CM; [3]): 66%
- CM activity, expressed as percentage of that without addition of phenylalanine (CM; [4]): 89 percentages
